Assay results taken from patent US20050255595A1, “Genetically modified non-human mammal cells, procedure for their production and use in toxicity tests” (priority 2002, published 2005).
Where two headings read alike, the source gives them in different places.

Tests used:
[1] = tested on: primary hepatocytes (PHGH); test: cellular survival of PHGH, Trypan Blue exclusion; type: cell-based, mice; parameters: % cellular survival, PHGH 1 + 24 h / % cellular survival, PHGH 5 + 24 / % vitality of the cells, PHGH 1 + 24 h / % vitality of the cells, PHGH 5 + 24 h: unit of the concentration uncertain; conditions: for % vitality of the cells, PHGH 1 + 24 h / % cellular survival, PHGH 1 + 24 h: 1 h treatment + 24 h normal medium; for % vitality of the cells, PHGH 5 + 24 h / % cellular survival, PHGH 5 + 24: 5 h treatment + 24 h normal medium
From the text: (§1) This different behaviour is explained by the greater sensitivity to the toxicant of the PHGH with respect to the MMH/GH5 as shown by analysis of the cellular vitality performed with the Trypan Blue method (FIG. 1, graph B). […] Therefore the greater resistance of the cells MMH/GH/5 to the toxicants constitutes another evident advantage as it permits the exclusion of false negatives in which the non-release of hGH, due to cellular death, is interpreted as non-toxicity of the compound. When the supernatant is collected after 5 hours of treatment followed by 24 hours of culture with normal medium (FIG. 1 graph C) the PHGHs respond, at the lowest concentrations of the two toxicants, with high levels of secretion of hGH and, at the highest concentrations, with low levels of secretion of hGH (lower cellular survival, graph D).
(§2) In table 3 the cellular survival percentage was determined with the Trypan Blue exclusion method. […]
(§3) For treatment, the two types of cells were treated with different concentrations of the compounds for 1 or 5 hours and then with normal medium for a further 24 hours. The effects of the treatment were assessed as described previously for the inorganic toxicants.

[2] = tested on: MMH/GH5 cells; test: cellular survival of MMH/GH5, Trypan Blue exclusion; type: cell-based, mice; parameters: % cellular survival, MMHGH/5 1 + 24 h / % cellular survival, MMHGH/5 5 + 24 / % vitality of the cells, MMH/GH 1 + 24 h / % vitality of the cells, MMH/GH 5 + 24 h: unit of the concentration uncertain; conditions: for % vitality of the cells, MMH/GH 1 + 24 h / % cellular survival, MMHGH/5 1 + 24 h: 1 h treatment + 24 h normal medium; for % vitality of the cells, MMH/GH 5 + 24 h / % cellular survival, MMHGH/5 5 + 24: 5 h treatment + 24 h normal medium
From the text: as §1, §2, §3

[3] = tested on: MMH/GH5 cells (Clone 5); parameters: hGH secreted, MMHGH/5 1 + 24 h / hGH secreted, MMHGH/5 5 + 24 / hGH secreted, MMHGH/5 1 h / hGH secreted, MMHGH/5 5 h: dose or concentration left out as unconfirmed
[4] = tested on: single transgenic HPS70/hGH primary hepatocytes (PHGH); test: toxicity test, hGH secretion by primary transgenic hepatocytes (PHGH); type: cell-based, mice; parameters: hGH secreted, PHGH 1 h / hGH secreted, PHGH 5 h / hGH secreted, PHGH 1 + 24 h / hGH secreted, PHGH 5 + 24: unit of the concentration uncertain
From the text: On the basis of the results illustrated, for the further analyses, clone no. […] The response to the toxic stress of the clone MMH/GH5 was then compared with the one obtained in single transgenic HPS70/hGH primary hepatocytes (PHGH). A representative sample of the cell line derived from said clone MMH/GH5 was deposited in accordance with and for the purposes of the Treaty of Budapest on the international recognition of deposit of micro-organisms for the purposes of the patents procedure with the AID “Centro di Biotecnologie Avanzate (CBA), Interlab Cell Line Collection (ICLC)” Servizio Biotecnologie, Largo R. Benzi, 10, 16132 Genova, Italy, on Jul. 30, 2002, where it was given identification number PD 02007.
as §2, §3

[5] = tested on: MMH/GH cells, Clone 11
[6] = tested on: MMH/GH cells, Clone 4
[7] = 5 (unit uncertain), Trypan Blue
[8] = 50 (unit uncertain), Trypan Blue (Table 4)
[9] = 25 (unit uncertain), Trypan Blue
[10] = 50 (unit uncertain), Trypan Blue (Table 3)
[11] = 10 (unit uncertain), Trypan Blue

In the case of `O=[N+]([O-])c1ccc(Cl)c([N+](=O)[O-])c1` [CDNB, 1-Chloro-2,4-DiNitro-Benzene], the “% vitality of the cells, PHGH 1 + 24 h” value [1, 7] is reported as 80%, the “% vitality of the cells, PHGH 5 + 24 h” value [1, 7] is reported as 40% and the “% vitality of the cells, PHGH 1 + 24 h” value [1, 8] is reported as 5%. The “% vitality of the cells, PHGH 5 + 24 h” value [1, 8] was 5%, the “% vitality of the cells, MMH/GH 1 + 24 h” value [2, 7] was 80% and the “% vitality of the cells, MMH/GH 5 + 24 h” value [2, 7] was 60%. For the same molecule, the “% vitality of the cells, MMH/GH 1 + 24 h” value [2, 8] was 70%, the “% vitality of the cells, MMH/GH 5 + 24 h” value [2, 8] was 20% and the “toxicity on MMH/GH5 cells compared with PHGHs” value ([2]; words, data in table 4) was “less toxic”. The “secretion of the hGH from the MMH/GH5 cells” value ([3]; all the conditions tested) was “considerable secretion”.

`CCCCC[C@H](O)/C=C/[C@H]1C=CC(=O)[C@@H]1CCCCCCC(=O)O` [PGA1] was tested, and the “% cellular survival, PHGH 1 + 24 h” value [1, 9] was 95%, the “% cellular survival, PHGH 5 + 24” value [1, 9] was 90% and the “% cellular survival, PHGH 1 + 24 h” value [1, 10] was 90%. For the same molecule, the “% cellular survival, PHGH 5 + 24” value [1, 10] was 70%, the “% cellular survival, MMHGH/5 1 + 24 h” value [2, 9] was 90% and the “% cellular survival, MMHGH/5 5 + 24” value [2, 9] was 90%. The “% cellular survival, MMHGH/5 1 + 24 h” value [2, 10] was 90%, the “% cellular survival, MMHGH/5 5 + 24” value [2, 10] was 90% and the “hGH secreted, MMHGH/5 1 h” value ([3]; 25, 1 h treatment) was 10 pg hGH/10^6 cells. For the same molecule, the “hGH secreted, MMHGH/5 1 + 24 h” value ([3]; 25, 1 h treatment + 24 h normal medium) was 0 pg hGH/10^6 cells, the “hGH secreted, MMHGH/5 5 h” value ([3]; 25, 5 h treatment) was 27 pg hGH/10^6 cells and the “hGH secreted, MMHGH/5 5 + 24” value ([3]; 25, 5 h treatment + 24 h normal medium) was 2 pg hGH/10^6 cells. For the same molecule, the “hGH secreted, MMHGH/5 1 h” value ([3]; 50, 1 h treatment (Table 3)) was 94 pg hGH/10^6 cells, the “hGH secreted, MMHGH/5 1 + 24 h” value ([3]; 50, 1 h treatment + 24 h normal medium (Table 3)) was 116 pg hGH/10^6 cells and the “hGH secreted, MMHGH/5 5 h” value ([3]; 50, 5 h treatment (Table 3)) was 47 pg hGH/10^6 cells. For the same molecule, the “hGH secreted, MMHGH/5 5 + 24” value ([3]; 50, 5 h treatment + 24 h normal medium (Table 3)) was 9 pg hGH/10^6 cells, the “hGH secreted, PHGH 1 h” value ([4]; 25 (unit uncertain), 1 h treatment) was 9 pg hGH/10^6 cells and the “hGH secreted, PHGH 1 + 24 h” value ([4]; 25 (unit uncertain), 1 h treatment + 24 h normal medium) was 13 pg hGH/10^6 cells. The “hGH secreted, PHGH 5 h” value ([4]; 25 (unit uncertain), 5 h treatment) was 16 pg hGH/10^6 cells, the “hGH secreted, PHGH 5 + 24” value ([4]; 25 (unit uncertain), 5 h treatment + 24 h normal medium) was 69 pg hGH/10^6 cells and the “hGH secreted, PHGH 1 h” value ([4]; 50 (unit uncertain), 1 h treatment (Table 3)) was 7 pg hGH/10^6 cells. For the same molecule, the “hGH secreted, PHGH 1 + 24 h” value ([4]; 50 (unit uncertain), 1 h treatment + 24 h normal medium (Table 3)) was 4 pg hGH/10^6 cells, the “hGH secreted, PHGH 5 h” value ([4]; 50 (unit uncertain), 5 h treatment (Table 3)) was 17 pg hGH/10^6 cells and the “hGH secreted, PHGH 5 + 24” value ([4]; 50 (unit uncertain), 5 h treatment + 24 h normal medium (Table 3)) was 522 pg hGH/10^6 cells.

With `O=[As][O-].[Na+]` [NaAsO2] the “hGH secreted, 5 + 24 h” value [5] was 0, the “hGH secreted, 5 + 24 h” value [6] was 0 and the “hGH secreted, 5 h” value [6] was 0.

`c1ccc2c(c1)cc1ccc3cccc4ccc2c1c34` [BaP, Benzo(a)Pyrene] was tested, and the “% vitality of the cells, PHGH 1 + 24 h” value [1, 11] was 50%, the “% vitality of the cells, PHGH 5 + 24 h” value [1, 11] was 50% and the “% vitality of the cells, PHGH 1 + 24 h” value [1, 8] was 50%. The “% vitality of the cells, PHGH 5 + 24 h” value [1, 8] was 30%, the “% vitality of the cells, MMH/GH 1 + 24 h” value [2, 11] was 90% and the “% vitality of the cells, MMH/GH 5 + 24 h” value [2, 11] was 90%. For the same molecule, the “% vitality of the cells, MMH/GH 1 + 24 h” value [2, 8] was 90%, the “% vitality of the cells, MMH/GH 5 + 24 h” value [2, 8] was 90% and the “stimulation of the promoter HSP70 in the PHGHs” value ([4]; words, Table 4) was “does not stimulate”.
